Measured values: US6514734B1, “Polybifunctional reagent having a polymeric backbone and latent reactive moieties and bioactive groups” (Surmodics, Inc., priority 1997, dated 2003)
Where no end group is shown, it is not given here. {C12NH2} = aliphatic C12 spacer ending in a primary amine, used to couple the probe to the polymer

Tests used:
[1] = test system: Escherichia coli (ATCC No. 25922); format: cell-based; details: in solution
Experimental: (§1) Magainin is a cationic peptide antibiotic that was originally isolated from the skin of Xenopus laevis. It is active against a broad spectrum of pathogens and acts at the surface of the pathogens. The activity of the magainin polymer was evaluated by a standard solution assay, which determined the minimum inhibitory concentration (MIC) of magainin polymer that was required to prevent the growth of bacteria.

[2] = test system: Staphylococcus epidermidis (ATCC No. 12228); format: cell-based; details: in solution
Experimental: as §1

[3] = as obtained from Celsus Laboratories; cited from earlier work
[4] = test system: Complementary detection probe; assay: Hybridization of biotinylated detection probe to coated polypropylene microwells (SA-HRP, A655); format: binding; details: 50 fmole probe per well, n=3
Experimental: (§2) The DNA-polymer was applied to microplate wells (polypropylene plates from Corning Costar Corporation, Cambridge, Mass.) at 10 pmole (in 0.1 ml solution) per well and incubated for 10-30 minutes. The plates containing DNA polymer solutions were illuminated for 1.5 minutes with a Dymax lamp as described herein except that a filter was used that removes light of wavelengths shorter than 300 nm. A control consisted of oligoDNA capture probe (10 pmole in 0.1 ml 50 mM phosphate buffer, pH 8.5, 1 mM EDTA) that was added to wells, allowed to adsorb for 2.5 hr., and not illuminated. The plates were washed with phosphate buffered saline containing 0.05% Tween 20 in PBS to remove unbound DNA-polymer or control oligoDNA capture probe. […]
(§3) The binding of each detection probe was assayed by subsequently adding a conjugate of streptavidin and horseradish peroxidase (SA-HRP, available from Pierce, Rockford, Ill.) and measuring the activity of the bound HRP. […] The plates were then washed with 0.05% Tween 20 in PBS, followed by addition of peroxidase substrate (TMB Microwell Peroxidase substrate system from Kirkegarrd and Perry Laboratories, Gaithersburg, Md.) and measurement of absorbance at 655 nm on a microplate reader (model 3550, Bio-Rad Labs, Cambridge, Mass.). Since the polypropylene plates were opaque, the reacted substrate solutions were transferred to polystyrene plates to read the absorbance.

[5] = test system: Noncomplementary detection probe; assay: as above; format: binding; details: 50 fmole probe per well, n=3
Experimental: as §2, §3

bovine thrombin [6] = target: T1, bovine thrombin (Bos taurus, UniProt P00735); assay: Activities of hirudin and hirudin polymer in solution (thrombin inhibition, Chromozym TH); format: biochemical; details: per mg of hirudin
T1 construct: a known amount of bovine thrombin; purchased Sigma Chemical Co., St. Louis, Mo
Experimental: The specific activities of hirudin and hirudin polymer were determined by standard protocols provided by Transgene and are expressed as antithrombin units (ATU's) per mg of hirudin. One ATU is the amount of hirudin that is required to inhibit the proteolytic activity of one NIH unit of thrombin. For these assays, a known amount of bovine thrombin (175-350 NIH units/mg., from Sigma Chemical Co., St. Louis, Mo.) was preincubated with a series of dilutions of hirudin or hirudin polymer, and the remaining thrombin activity was determined with a chromogenic substrate, Chromozym TH (from Boehringer Mannheim Corp, Indianapolis, Ind.). The specific activities of hirudin assayed before and after incorporation into the hirudin polymer were 11,710 and 10,204 ATU/mg, respectively. Therefore incorporation of hirudin into the polymer produced only a 13% decrease in its activity.

bovine thrombin [7] = target: T1, bovine thrombin; details: from Transgene Laboratories; cited from earlier work
immunoglobulin G (IgG) = assay: Activity of protein A polymer coatings: binding and elution of IgG from rabbit serum; details: for Fold greater IgG on protein A coating: versus uncoated control
Experimental: Protein A is a bacterial protein that binds specifically to the Fc region of immunoglobulin G (IgG) molecules. The activity of the protein A coating on each type of membrane was evaluated by assaying for binding by added IgG. Uncoated membranes were used as controls. For this assay, 2 ml of rabbit serum was diluted 1:5 in PBS and perfused through the coated membranes at 2-3 ml/min. The membranes were then washed with PBS to remove unbound IgG. The bound IgG was then eluted with 0.1 M glycine in 2% acetic acid. The amount of eluted IgG was determined by measuring the absorbance of the eluant at 280 nm and using an extinction coefficient (ε280) of 1.4 ml/cm-mg to calculate the mg of eluted IgG. Also the IgG that eluted from each membrane type was evaluated for purity by reduced SDS PAGE analysis. With the biomaterials coated with protein A polymer, the eluted protein was greater than 90% light and heavy chains of IgG. In contrast, the major protein that eluted from uncoated controls was albumin.
Three discs of each type (PSO or RC) were placed in a MAC-25 holder and evaluated using this procedure.

underivatized HRP = target: T2, underivatized HRP (Armoracia rusticana, UniProt P00433); assay: Streptavidin polymer coating on glass rods: nonspecific binding of underivatized HRP
T2 sequence (P00433 31-338): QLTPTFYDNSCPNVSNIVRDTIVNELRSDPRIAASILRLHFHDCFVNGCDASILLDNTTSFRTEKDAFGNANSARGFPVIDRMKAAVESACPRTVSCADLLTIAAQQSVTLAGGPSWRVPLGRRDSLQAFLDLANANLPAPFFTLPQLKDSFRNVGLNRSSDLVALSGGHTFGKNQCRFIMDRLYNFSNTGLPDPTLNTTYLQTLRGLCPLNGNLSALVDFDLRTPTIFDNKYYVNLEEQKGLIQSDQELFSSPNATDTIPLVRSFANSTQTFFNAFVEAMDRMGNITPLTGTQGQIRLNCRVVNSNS
Experimental: (§4) The organosilane primed glass rods were dipped into a solution of streptavidin polymer for 30 seconds. The glass rods were removed from the solution, allowed to air dry, and illuminated for 30 seconds with a Dymax lamp. Adsorption controls were prepared via the same protocol, except that they were not illuminated. Both type of coated rods were washed with PBS containing 0.05% Tween 20 to remove nonadherent streptavidin polymer.
(§5) Streptavidin is a receptor that binds strongly to biotin as its ligand. The activity of streptavidin polymer coating was evaluated by quantifying the binding of added biotin derivatized horseradish peroxidase (biotin-HRP, obtained from Pierce Chemical Company, Rockford, Ill.). The glass rods were incubated for one hour in a 9 μg/ml solution of biotin-HRP. The binding of underivatized HRP (added at 9 μg/mi) was evaluated as a control for nonspecific binding of HRP to the glass rods. The rods were then washed with PBS containing 0.05% Tween 20 to remove nonbound HRP, and the relative activity of bound HRP was evaluated with a TMB peroxidase substrate system (Kirkegaard and Perry Laboratory, Inc., Gaithersburg, Md.). HRP catalyzes the oxidation of TMB and produces a color that is quantitated spectrophotometrically at 405 nm. Each result is the average of 3 determinations.

[8] = test system: biotin derivatized horseradish peroxidase (biotin-HRP); assay: Streptavidin polymer coating on glass rods: binding of biotin-HRP; details: for Absorbance of Biotin-HRP: glass rods
Experimental: as §4, §5

## magainin polymer: photoreactive polyacrylamide containing magainin ligand (SEQ ID NO:14) (GIGKFLHSAKKFGKAFVGEIMNSC; not fully specified (residue 24); printed as Gly Ile Gly Lys Phe Leu His Ser Ala Lys Lys Phe Gly Lys Ala Phe Val Gly Glu Ile Met Asn Ser Cys; also: in photoreactive polyacrylamide)
[1]
  MIC: 50 µg/mL
[2]
  MIC: 50 µg/mL

## heparin [Unbleached heparin]
[3]
  heparin activity: 152 units/mg

## 5′-GTCTGAGTCGGAGCCAGGGCGGCCGCCAACAGCAGGAGCA (DNA GTCTGAGTCGGAGCCAGGGCGGCCGCCAACAGCAGGAGCA; DNA, 5' {C12NH2}, backbone not given here; coupled via 5' amine to photoreactive NOS polymer) [oligo DNA capture probe]
[4]
  Hybridization Signals (A655), Complementary detection probe: 0.037 ± 0.005
[5]
  Hybridization Signals (A655), Noncomplementary detection probe: 0.033 ± 0.001

## hirudin
Bovine thrombin [6]
  specific activity: 11,710 ATU/mg
Bovine thrombin [7]
  activity of recombinant hirudin as obtained: 16,500±2000 ATU/mg

## protein A polymer: photoreactive polyacrylamide containing recombinant staphylococcal protein A ligands
Immunoglobulin G (IgG); Polysulfone membrane, average of 10 cycles
  IgG eluted: 0.680 mg/disc
Immunoglobulin G (IgG); Polysulfone
  Fold greater IgG on protein A coating: 34
Immunoglobulin G (IgG); Regenerated cellulose membrane, average of 3 cycles
  IgG eluted: 0.383 mg/disc
Immunoglobulin G (IgG); Regenerated cellulose
  Fold greater IgG on protein A coating: 64

## streptavidin polymer: photoreactive polyacrylamide containing streptavidin ligands
Underivatized HRP; adsorbed (nonilluminated)
  Absorbance of HRP: 0.065
Underivatized HRP; covalent (photoimmobilized)
  Absorbance of HRP: 0.056
[8]; biotin-HRP added
  peroxidase activity of adsorbed, fold less than covalent: 3.5 fold
[8]; adsorbed (nonilluminated)
  Absorbance of Biotin-HRP: 0.285
[8]; covalent (photoimmobilized)
  Absorbance of Biotin-HRP: 1.005
